According to patent US5643954A, “Method of preventing and alleviating stress in a healthy mammal in need thereof” (priority 1993, dated 1997):
Where two headings read alike, the source gives them in different places.

Experiments:
[1] = system: chronic electric painful influence; details: for daily 15% ethanol consumption: M ± m
Experimental: In the test and control groups of animals, a determination was given during 7 days to an individual daily consumption of 15% ethanol in the conditions of free choice between said 15% ethanol and water. Thereafter the young rats were subjected to quintuple electric painful influence, daily for 2 weeks, on the paws for 5 minutes, duration 1 sec.; the grown-up animals--tenfold influence for 10 minutes, duration 1 sec. […] The control group received a corresponding volume of water.

[2] = orientation motive activity of mice, automated registration of movements; type: in vivo, mice (male); details: for Number of movements in 10 min in register: M ± m
Experimental: (§1) Experiments were conducted in vivo on male mice weighing 18-22 g and male rats weighing 200-250 g, as well as in vitro on the isolated organs: a guinea pig's ileum and a rat's seminal effervesces.

[3] = system: bioelectric activity of rats' brain; test: spontaneous bioelectrical activity of rats' brain (EEG, implanted electrodes); type: in vivo; set-up: Amplitude, slow activ. / Amplitude, fast activ.: unit not given here; details: for Amplitude, fast activ. / Amplitude, slow activ.: M ± m
[4] = after dose, M ± m
[5] = taken once or regularly (14 days)
[6] = Experimental: The examination of attention was performed by using Schulte test which provides for a square chart produced before a patient (tested) that is divided into 49 squares containing confusedly arranged red and black numbers (24 and 25, respectively). The numbers are sought in the chart in strict order, say, red ones in increasing order and black ones in decreasing order, and along with this, the time is fixed for execution of the entire assignment, the time of search of each and every figure and the number of mistakes. The test makes it possible to assess attention and reveal the persons having enhanced emotional responses.
To study the state of short-lived memory, use was made of a test based on reproduction of 10 two-digit numbers shown on the screen for 20 sec. […] Sensomotor reactions were evaluated with the aid of a visual-motor reaction (differentiation of optical signals from 20 applications).

[7] = system: phenamine stereotypy; details: M ± m
[8] = for Addition: after taking
Source text: A test permits evaluating the rate of counting-computing operations per unit time (in each and every minute), duration of execution of the task (time spent for adding 184 pairs of numbers), the number of mistakes, the speed of attention switching and the degree of weariness.

[9] = system: Corazol twitches; test: comparative interaction test with Corazol, rats; type: in vivo; details: M ± m
[10] = system: guinea pig's ileum (acetylcholine); details: for Amplitude of concentration in % to control / Amplitude of concentration: acetylcholine; for Amplitude of concentration: M ± m
Experimental: as §1

[11] = system: rat's seminal effervesce (adrenaline); details: for Amplitude of concentration in % to control / Amplitude of concentration: adrenaline; for Amplitude of concentration: M ± m
Experimental: as §1

[12] = for Number of errors per 500 symbols: M ± m
Experimental: Examination of the mental capacity dynamics of the tested was performed in two stages.

[13] = system: Corazol convulsions; test: testings with Corazolin (Corazol), mice; type: in vivo; details: for Corazol latent period / Corazol life-time: M ± m
[14] = after taking the preparation, M ± m
[15] = 30 min after taking the claimed preparation
[16] = week's fourth day, after classes
[17] = week's fourth day, before classes, after dose
[18] = week's second day, after classes
[19] = week's second day, before classes, after dose
[20] = intragastric, 20 min before Corazol, in words

aminoacetic acid [claimed preparation]
daily 15% ethanol consumption ([1]; adult animals, 2nd week, 1 to 2 mg/kg tongue root): 3.4 ± 0.13 mL
daily 15% ethanol consumption ([1]; adult animals, 4th week (after cancellation)): 2.3 ± 0.3 mL
daily 15% ethanol consumption ([1]; adult animals, 3d week, 1 to 2 mg/kg tongue root): 2.5 ± 0.15 mL
daily 15% ethanol consumption ([1]; adult animals, Test, 1st week (before stress and administration)): 1.8 ± 0.08 mL
aggressiveness and exciteability ([1]; during the entire experiment, vs control groups): considerable reduction of aggressiveness and exciteability
alcohol motivation ([1]; rat, in vivo): diminishes the alcohol motivation of the animals
daily 15% ethanol consumption ([1]; young rats, 2nd week, 1 to 2 mg/kg tongue root): 4.4 ± 0.3 mL
daily 15% ethanol consumption ([1]; young rats, 4th week (after cancellation)): 1.6 ± 0.18 mL
daily 15% ethanol consumption ([1]; young rats, 3d week, 1 to 2 mg/kg tongue root): 2.0 ± 0.2 mL
daily 15% ethanol consumption ([1]; young rats, Test, 1st week (before stress and administration)): 2.7 ± 0.2 mL
Number of movements in 10 min in register ([2]; 2 mg/kg intraperitoneally): 371 ± 56
Number of movements in 10 min in register ([2]; 20 mg/kg intraperitoneally): 365 ± 79
Number of movements in 10 min in register ([2]; 40 mg/kg into stomach): 439 ± 70
Number of movements in 10 min in register ([2]; 40 mg/kg intraperitoneally): 324 ± 56
Number of movements in 10 min in register ([2]; 80 mg/kg intraperitoneally): 398 ± 48
Number of movements in 10 min in register ([2]; 200 mg/kg intraperitoneally): 275 ± 23
motor activity ([2]; in words): reduction of animals' motor activity
Amplitude, fast activ. ([3]; 2 mg/kg): 325 ± 24
Amplitude, slow activ. ([3]; 2 mg/kg): 315 ± 14
Maximal effect appearance time from the start of experiment ([3]; 40 mg/kg): 70 min
Nature of effect ([3]; 40 mg/kg): episodic
Nature of effect, episodes ([3]; 40 mg/kg): 1-2 episodes per hr
synchronizing effect on encephalogram ([3]; 40 mg/kg intraperitoneally): tends to call for a synchronizing effect on an encephalogram
Amplitude, fast activ. ([3]; 40 mg/kg): 243 ± 10
Amplitude, slow activ. ([3]; 40 mg/kg): 380 ± 21
AMo/Δx ([4]; after testing): 94.8 ± 4.1
Amo ([4]; after testing): 36.4 ± 2.2%
Mo ([4]; after testing): 0.74 ± 0.03 s
Δx ([4]; after testing): 0.38 ± 0.01 s
AMo/Δx ([4]; prior to tests): 83.8 ± 4.0
Amo ([4]; prior to tests): 32.0 ± 2.0%
Mo ([4]; prior to tests): 0.75 ± 0.03 s
Δx ([4]; prior to tests): 0.39 ± 0.01 s
weariness, irritation and internal unrest [5]: weariness, irritation and internal unrest significantly abate
cases with increased volume of short-lived memory ([6]; 2 mg/kg one time): 58.9%
cases with subjective and objective improvement of general state ([6]; 2 mg/kg one time): 87.2%
students with reduction of latent period of visual-motor reaction and number of differentiation disruptions ([6]; 2 mg/kg one time): 56.4%
tested whose short-lived memory did not worsen and remained on the initial level ([6]; 2 mg/kg one time): 25.7%
increase of volume of short-lived memory ([6]; 2 mg/kg one time, average): 25%
attention ([6]; 2 mg/kg one time, in words): reducing the attention switching time and the number of mistakes made
Attention switching number of errors [6, 14]: 3.20 ± 0.39
Attention switching time [6, 14]: 95.39 ± 6.11 s
Shortlived memory [6, 14]: 46.92 ± 2.58 nom. units
Visual-motor reaction differentiation disruption [6, 14]: 0.46 ± 0.13 nominal units
Visual-motor reaction latent period [6, 14]: 0.51 ± 0.01 min
phenamine duration of stereotypy ([7]; 2 mg/kg): 65.0 ± 2.5 min
phenamine latent period ([7]; 2 mg/kg): 110.0 ± 2.6 s
phenamine duration of stereotypy ([7]; 40 mg/kg): 62.0 ± 1.6 min
phenamine latent period ([7]; 40 mg/kg): 115.0 ± 1.5 s
phenamine duration of stereotypy ([7]; 200 mg/kg): 62.0 ± 2.1 min
phenamine latent period ([7]; 200 mg/kg): 120.0 ± 2.8 s
cases with reduced time for adding up numbers ([8]; 30 min after single dose): 79.5%
number of errors in counting ([8]; 30 min after single dose): diminishes twice
reduction of time for adding up numbers ([8]; 30 min after single dose): 1.5 to 2 min
Number of mistakes [8, 15]: 1
Those making mistakes [8, 15]: 40%
Speed of addition ([8]; 30 min after taking the claimed preparation, M ± m): 52.0 ± 1.9 pair/min
Addition ([8]; alcoholic abstinence syndrome (2nd day), M ± m): 32.0 ± 1.6 pair/min
Addition ([8]; remission period, M ± m): 51.0 ± 1.8 pair/min
Corazol twitches, latent period ([9]; 20 mg/kg): 41.0 ± 0.3 min
Corazol twitches, latent period ([9]; 80 mg/kg): 45.0 ± 0.9 min
Corazol twitches, latent period ([9]; 200 mg/kg): 42.5 ± 0.7 min
Amplitude of concentration in % to control ([10]; 1·10^-4 M, 100 µM): 89%
Amplitude of concentration ([10]; 1·10^-4 M): 97.0 ± 1.5 mm
Amplitude of concentration in % to control ([10]; 1·10^-5 M, 10 µM): 99%
Amplitude of concentration ([10]; 1·10^-5 M): 105.0 ± 1.8 mm
Amplitude of concentration in % to control ([10]; 1·10^-6 M, 1 µM): 109%
Amplitude of concentration ([10]; 1·10^-6 M): 116.0 ± 2.4 mm
antagonism with acetylcholine ([10]; in words): without discovering antagonism with said acetylcholine
Amplitude of concentration in % to control ([11]; 1·10^-4 M, 100 µM): 65,5%
Amplitude of concentration ([11]; 1·10^-4 M): 45.0 ± 0.6 mm
Amplitude of concentration in % to control ([11]; 1·10^-5 M, 10 µM): 83%
adrenoblocking action ([11]; 1·10^-5 and 1·10^-4 M): weak and mild adrenoblocking action
Amplitude of concentration in % to control ([11]; 1·10^-6 M, 1 µM): 94%
Amplitude of concentration ([11]; 1·10^-6 M): 65.0 ± 1.2 mm
contracting responses to adrenaline ([11]; in words): suppresses the contracting responses
Work without mistakes [12, 16]: 14.3%
Number of errors per 500 symbols [12, 16]: 8.4 ± 1.2
Work without mistakes [12, 17]: 28.6%
Number of errors per 500 symbols [12, 17]: 7.6 ± 1.9
Work without mistakes [12, 18]: 25.0%
Number of errors per 500 symbols [12, 18]: 7.8 ± 1.8
Work without mistakes [12, 19]: 16.5%
Number of errors per 500 symbols [12, 19]: 6.5 ± 1.6
Corazol tonico-extensor phase ([13]; 2 mg/kg intragastric): 100 min
Corazol latent period ([13]; 2 mg/kg intragastric): 39.0 ± 0.6 s
Corazol life-time ([13]; 2 mg/kg intragastric): 2.5 ± 0.7 min
Corazol tonico-extensor phase ([13]; 20 mg/kg intragastric): 80 min
Corazol latent period ([13]; 20 mg/kg intragastric): 41.0 ± 0.3 s
Corazol life-time ([13]; 20 mg/kg intragastric): 2.8 ± 0.8 min
Corazol tonico-extensor phase ([13]; 40 mg/kg intragastric): 70 min
Corazol latent period ([13]; 40 mg/kg intragastric): 49.0 ± 0.7 s
Corazol life-time ([13]; 40 mg/kg intragastric): 2.4 ± 0.7 min
Corazol tonico-extensor phase ([13]; 80 mg/kg intragastric): 70 min
Corazol latent period ([13]; 80 mg/kg intragastric): 45.0 ± 0.9 s
Corazol life-time ([13]; 80 mg/kg intragastric): 3.1 ± 0.9 min
Corazol tonico-extensor phase ([13]; 200 mg/kg intragastric): 70 min
Corazol latent period ([13]; 200 mg/kg intragastric): 42.5 ± 0.7 s
Corazol life-time ([13]; 200 mg/kg intragastric): 2.4 ± 0.5 min
latent period of Corazol convulsions [13, 20]: increased latent period of Corazol convulsions
tonico-extensor component of a twitch paroxysm [13, 20]: some depression of the tonico-extensor component of a twitch paroxysm
